Assay results: patent publication US12240816B2, “Deuterated compounds and uses thereof” (Aldeyra Therapeutics, Inc., priority 2015, dated 2025)
pIC50: −log10 of the molar value. Where a SMILES comes first, the peptide text is derived from it. Where no end group is shown, it is not given here.

Tests used:
Test in all cases: biochemical
Type in all cases: biochemical
[1] = biological target: enzyme and uptake assay panel targets (Table 36) (Homo sapiens, UniProt P42574)
[2] = biological target: enzyme and uptake assay panel targets (Table 36) (Homo sapiens, UniProt P06241); conditions: Fyn kinase (h); reference compound
Sequence of enzyme and uptake assay panel targets (Table 36) (Homo sapiens, UniProt P06241) (P06241 whole entry): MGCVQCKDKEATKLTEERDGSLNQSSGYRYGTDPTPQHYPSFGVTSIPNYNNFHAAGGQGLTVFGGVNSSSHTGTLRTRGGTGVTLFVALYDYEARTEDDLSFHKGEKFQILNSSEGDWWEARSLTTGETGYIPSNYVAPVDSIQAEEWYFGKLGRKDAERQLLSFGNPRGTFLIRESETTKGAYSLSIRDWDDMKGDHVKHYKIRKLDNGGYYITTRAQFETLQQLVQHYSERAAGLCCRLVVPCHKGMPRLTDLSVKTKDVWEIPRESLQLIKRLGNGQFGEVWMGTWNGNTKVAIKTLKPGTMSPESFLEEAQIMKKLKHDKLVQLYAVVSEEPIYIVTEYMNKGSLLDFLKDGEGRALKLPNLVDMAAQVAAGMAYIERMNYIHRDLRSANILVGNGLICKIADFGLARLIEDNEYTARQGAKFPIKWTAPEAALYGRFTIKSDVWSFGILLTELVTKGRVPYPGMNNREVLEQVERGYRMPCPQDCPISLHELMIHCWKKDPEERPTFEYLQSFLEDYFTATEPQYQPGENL

[3] = biological target: enzyme and uptake assay panel targets (Table 36) (Homo sapiens, UniProt O76074); conditions: PDE5 (h) (non-selective); reference compound
[4] = biological target: enzyme and uptake assay panel targets (Table 36) (Homo sapiens, UniProt Q13370); conditions: PDE3B (h); reference compound
Sequence of enzyme and uptake assay panel targets (Table 36) (Homo sapiens, UniProt Q13370) (Q13370 whole entry): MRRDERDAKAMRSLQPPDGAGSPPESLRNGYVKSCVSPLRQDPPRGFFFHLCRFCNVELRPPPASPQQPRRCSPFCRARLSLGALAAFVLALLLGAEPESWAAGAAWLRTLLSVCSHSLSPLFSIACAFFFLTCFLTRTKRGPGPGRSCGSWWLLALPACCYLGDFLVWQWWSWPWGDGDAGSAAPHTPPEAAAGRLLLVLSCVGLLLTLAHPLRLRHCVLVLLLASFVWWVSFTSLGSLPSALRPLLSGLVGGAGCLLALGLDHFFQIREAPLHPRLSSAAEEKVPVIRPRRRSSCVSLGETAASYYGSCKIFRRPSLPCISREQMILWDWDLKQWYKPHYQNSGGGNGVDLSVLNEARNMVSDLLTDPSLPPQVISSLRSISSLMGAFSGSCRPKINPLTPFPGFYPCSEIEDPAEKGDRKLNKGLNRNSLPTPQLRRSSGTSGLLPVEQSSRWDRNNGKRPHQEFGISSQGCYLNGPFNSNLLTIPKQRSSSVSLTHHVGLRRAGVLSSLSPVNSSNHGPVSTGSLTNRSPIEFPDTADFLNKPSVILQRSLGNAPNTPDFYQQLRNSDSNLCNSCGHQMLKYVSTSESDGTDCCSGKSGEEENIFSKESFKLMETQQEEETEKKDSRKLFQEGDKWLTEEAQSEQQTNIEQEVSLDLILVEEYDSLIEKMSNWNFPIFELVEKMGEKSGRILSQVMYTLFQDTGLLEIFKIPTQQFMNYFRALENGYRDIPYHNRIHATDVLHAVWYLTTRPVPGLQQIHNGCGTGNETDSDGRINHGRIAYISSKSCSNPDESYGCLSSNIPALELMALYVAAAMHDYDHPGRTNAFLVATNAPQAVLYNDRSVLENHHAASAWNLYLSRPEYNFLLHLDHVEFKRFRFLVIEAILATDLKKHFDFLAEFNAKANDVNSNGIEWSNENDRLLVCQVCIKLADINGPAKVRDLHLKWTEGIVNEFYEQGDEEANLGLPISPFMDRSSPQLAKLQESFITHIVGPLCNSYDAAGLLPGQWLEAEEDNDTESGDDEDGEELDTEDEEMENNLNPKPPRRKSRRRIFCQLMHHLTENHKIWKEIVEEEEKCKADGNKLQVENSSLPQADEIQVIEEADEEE

[5] = biological target: enzyme and uptake assay panel targets (Table 36) (Homo sapiens, UniProt Q14790); conditions: caspase-8 (h); reference compound
Sequence of enzyme and uptake assay panel targets (Table 36) (Homo sapiens, UniProt Q14790) (Q14790 217-479): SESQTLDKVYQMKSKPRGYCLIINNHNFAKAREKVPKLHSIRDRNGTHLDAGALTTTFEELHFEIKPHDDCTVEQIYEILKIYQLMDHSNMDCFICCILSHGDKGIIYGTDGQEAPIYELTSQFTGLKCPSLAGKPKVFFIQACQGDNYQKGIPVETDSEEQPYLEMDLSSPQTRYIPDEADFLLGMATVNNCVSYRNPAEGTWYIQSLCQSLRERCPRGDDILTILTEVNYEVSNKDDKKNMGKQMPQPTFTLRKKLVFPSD

[6] = biological target: enzyme and uptake assay panel targets (Table 36) (Homo sapiens, UniProt P08473); conditions: Peptidase, Metalloproteinase, Neutral Endopeptidase; reference compound
Sequence of enzyme and uptake assay panel targets (Table 36) (Homo sapiens, UniProt P08473) (P08473 whole entry): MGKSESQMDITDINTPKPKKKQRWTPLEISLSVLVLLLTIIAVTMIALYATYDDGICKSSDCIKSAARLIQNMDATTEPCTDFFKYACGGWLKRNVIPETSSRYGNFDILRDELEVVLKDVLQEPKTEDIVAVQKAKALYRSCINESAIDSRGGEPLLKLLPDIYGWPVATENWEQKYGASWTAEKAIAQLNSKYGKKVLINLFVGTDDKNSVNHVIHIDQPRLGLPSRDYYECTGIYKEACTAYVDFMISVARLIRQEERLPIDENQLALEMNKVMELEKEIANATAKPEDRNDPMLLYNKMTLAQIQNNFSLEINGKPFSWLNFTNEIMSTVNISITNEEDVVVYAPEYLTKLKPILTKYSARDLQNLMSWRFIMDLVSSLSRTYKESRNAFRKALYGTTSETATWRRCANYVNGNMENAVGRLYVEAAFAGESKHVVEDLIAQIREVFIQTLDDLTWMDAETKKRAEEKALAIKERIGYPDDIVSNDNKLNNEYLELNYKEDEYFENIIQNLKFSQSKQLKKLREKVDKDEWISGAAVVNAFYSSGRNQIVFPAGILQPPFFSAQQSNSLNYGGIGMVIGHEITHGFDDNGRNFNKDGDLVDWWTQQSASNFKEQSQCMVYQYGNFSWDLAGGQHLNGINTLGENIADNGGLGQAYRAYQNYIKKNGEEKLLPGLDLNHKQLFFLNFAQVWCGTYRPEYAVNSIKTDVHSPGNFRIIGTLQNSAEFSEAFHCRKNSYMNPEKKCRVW

[7] = biological target: enzyme and uptake assay panel targets (Table 36) (Homo sapiens, UniProt P03956)
Sequence of enzyme and uptake assay panel targets (Table 36) (Homo sapiens, UniProt P03956) (P03956 100-469): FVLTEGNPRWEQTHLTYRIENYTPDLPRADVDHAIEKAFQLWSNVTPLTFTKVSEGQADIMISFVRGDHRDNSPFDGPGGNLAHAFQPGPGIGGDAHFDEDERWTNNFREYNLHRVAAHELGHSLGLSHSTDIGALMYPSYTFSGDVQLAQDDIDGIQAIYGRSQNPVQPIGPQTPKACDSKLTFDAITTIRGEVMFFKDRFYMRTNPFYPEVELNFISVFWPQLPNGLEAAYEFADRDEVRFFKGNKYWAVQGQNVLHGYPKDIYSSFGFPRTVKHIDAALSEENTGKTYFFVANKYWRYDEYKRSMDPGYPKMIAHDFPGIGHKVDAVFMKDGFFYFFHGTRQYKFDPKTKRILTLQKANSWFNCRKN

[8] = biological target: enzyme and uptake assay panel targets (Table 36) (Homo sapiens, UniProt P14780)
[9] = biological target: enzyme and uptake assay panel targets (Table 36) (Homo sapiens, UniProt P08253)
Sequence of enzyme and uptake assay panel targets (Table 36) (Homo sapiens, UniProt P08253) (P08253 110-660): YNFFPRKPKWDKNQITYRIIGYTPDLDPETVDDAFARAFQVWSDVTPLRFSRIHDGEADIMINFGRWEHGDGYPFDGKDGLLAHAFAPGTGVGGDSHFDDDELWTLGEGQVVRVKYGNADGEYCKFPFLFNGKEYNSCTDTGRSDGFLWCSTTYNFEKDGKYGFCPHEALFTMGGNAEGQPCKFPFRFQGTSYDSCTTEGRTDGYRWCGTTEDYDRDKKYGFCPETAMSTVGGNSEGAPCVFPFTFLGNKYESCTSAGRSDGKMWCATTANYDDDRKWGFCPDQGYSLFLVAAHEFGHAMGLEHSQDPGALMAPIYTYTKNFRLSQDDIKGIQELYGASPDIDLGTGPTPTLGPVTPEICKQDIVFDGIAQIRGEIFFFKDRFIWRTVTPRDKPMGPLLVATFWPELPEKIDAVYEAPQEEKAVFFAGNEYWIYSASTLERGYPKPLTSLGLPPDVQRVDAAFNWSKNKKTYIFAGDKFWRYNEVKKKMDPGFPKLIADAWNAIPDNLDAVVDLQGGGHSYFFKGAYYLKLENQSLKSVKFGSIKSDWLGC

[10] = biological target: enzyme and uptake assay panel targets (Table 36); conditions: COMT (catechol-O-methyl transferase); reference compound
[11] = biological target: T1, enzyme and uptake assay panel targets (Table 36) (Bos taurus, UniProt P11541+P23439); conditions: PDE6 (non-selective); reference compound
T1 construct: other: PDE6 (non-selective); 1.0E−05M; nH; bovine retina

[12] = biological target: enzyme and uptake assay panel targets (Table 36) (Homo sapiens, UniProt P09917)
Sequence of enzyme and uptake assay panel targets (Table 36) (Homo sapiens, UniProt P09917) (P09917 whole entry): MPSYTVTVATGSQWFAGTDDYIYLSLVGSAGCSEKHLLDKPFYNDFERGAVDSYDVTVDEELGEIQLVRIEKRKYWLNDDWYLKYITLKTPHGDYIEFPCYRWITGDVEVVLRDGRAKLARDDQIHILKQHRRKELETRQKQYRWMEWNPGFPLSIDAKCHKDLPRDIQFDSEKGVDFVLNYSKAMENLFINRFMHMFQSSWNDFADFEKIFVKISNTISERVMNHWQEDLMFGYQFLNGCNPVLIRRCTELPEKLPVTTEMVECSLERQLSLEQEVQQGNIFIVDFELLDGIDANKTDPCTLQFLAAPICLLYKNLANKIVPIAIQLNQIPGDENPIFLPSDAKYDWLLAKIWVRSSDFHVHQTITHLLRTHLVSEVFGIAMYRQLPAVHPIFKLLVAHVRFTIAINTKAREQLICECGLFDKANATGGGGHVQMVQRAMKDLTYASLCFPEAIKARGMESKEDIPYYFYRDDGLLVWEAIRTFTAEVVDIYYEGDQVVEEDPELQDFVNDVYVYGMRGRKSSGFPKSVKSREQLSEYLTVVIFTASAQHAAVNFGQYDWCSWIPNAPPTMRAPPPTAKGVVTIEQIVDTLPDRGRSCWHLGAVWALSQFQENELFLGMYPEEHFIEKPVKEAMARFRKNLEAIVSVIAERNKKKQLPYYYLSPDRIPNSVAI

[13] = biological target: enzyme and uptake assay panel targets (Table 36) (Homo sapiens, UniProt P18054)
[14] = biological target: enzyme and uptake assay panel targets (Table 36) (Homo sapiens, UniProt Q9UQM7); conditions: CaMK2α (h); reference compound
Sequence of enzyme and uptake assay panel targets (Table 36) (Homo sapiens, UniProt Q9UQM7) (Q9UQM7 whole entry): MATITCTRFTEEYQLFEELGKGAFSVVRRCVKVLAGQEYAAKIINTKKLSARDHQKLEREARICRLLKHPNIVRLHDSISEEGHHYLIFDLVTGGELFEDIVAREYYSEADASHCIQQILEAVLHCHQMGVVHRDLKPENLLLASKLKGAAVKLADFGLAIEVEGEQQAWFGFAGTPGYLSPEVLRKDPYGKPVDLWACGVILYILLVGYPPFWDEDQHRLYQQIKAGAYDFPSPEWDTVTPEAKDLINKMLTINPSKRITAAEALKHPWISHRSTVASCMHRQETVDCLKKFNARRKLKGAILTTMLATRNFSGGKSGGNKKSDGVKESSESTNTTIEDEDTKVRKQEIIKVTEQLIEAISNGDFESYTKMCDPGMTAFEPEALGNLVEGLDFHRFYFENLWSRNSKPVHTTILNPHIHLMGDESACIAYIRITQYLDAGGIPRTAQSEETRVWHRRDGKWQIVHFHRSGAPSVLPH

[15] = biological target: T2, enzyme and uptake assay panel targets (Table 36); conditions: ATPase (Na+/K+); reference compound
T2 construct: other: ATPase (Na+/K+); 1.0E−05M; nH; porcine cerebral cortex

[16] = biological target: T3, enzyme and uptake assay panel targets (Table 36) (Bos taurus, UniProt P80457)
T3 construct: other: xanthine oxidase/superoxide 02^−scavenging; nH; other: xanthine oxldase/superoxide 02 ^−scavenging; 1.0E−05M; ot; purified xanthine oxidase from bovine milk

Sequence of enzyme and uptake assay panel targets (Table 36) (Homo sapiens, UniProt P42574) (P42574 29-277): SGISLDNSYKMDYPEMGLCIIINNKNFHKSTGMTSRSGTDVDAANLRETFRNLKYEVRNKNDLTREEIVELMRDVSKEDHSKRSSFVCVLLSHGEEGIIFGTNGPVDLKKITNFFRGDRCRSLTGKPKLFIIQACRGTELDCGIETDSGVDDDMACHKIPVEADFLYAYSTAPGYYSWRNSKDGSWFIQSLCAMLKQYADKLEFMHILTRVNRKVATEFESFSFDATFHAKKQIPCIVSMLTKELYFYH

## CC(=O)N[C@@H](CC(=O)O)C(=O)N[C@@H](CCC(=O)O)C(=O)N[C@H](C(=O)N[C@H](C=O)CC(=O)O)C(C)C [Ac-DEVD-CHO]
[1]
  nH: 1.1

## Cc1ccc(-c2nn(C(C)(C)C)c3ncnc(N)c23)cc1 [PP1]
[2]
  nH: >3

## OCCN(CCO)c1nc(N2CCCCC2)c2nc(N(CCO)CCO)nc(N3CCCCC3)c2n1 [dipyridamole]
[3]
  nH: 1.1

## Cc1[nH]c(=O)c(C#N)cc1-c1ccncc1 [milrinone]
[4]
  nH: 0.9

## CC[C@H](C)[C@H](NC(C)=O)C(=O)N[C@@H](CCC(=O)O)C(=O)N[C@H](C(=O)N[C@H](C=O)CC(=O)O)[C@@H](C)O [Ac-IETD-CHO] (Ac-IETD-aldehyde)
[5]
  IC50: 28 nM
  nH: 0.8

## CC(C)C[C@H](NP(=O)(O)O[C@@H]1O[C@@H](C)[C@H](O)[C@@H](O)[C@H]1O)C(=O)N[C@@H](Cc1c[nH]c2ccccc12)C(=O)O [Phosphoramidon]
[6]
  IC50: 16 nM
  nH: 0.9

## CNC(=O)[C@H](Cc1c[nH]c2ccccc12)NC(=O)[C@@H](CC(=O)NO)CC(C)C [GM6001]
[7]
  nH: 1.3
[8]
  nH: 0.9
[9]
  nH: 1.3

## O=C(c1cc(O)c(O)c([N+](=O)[O-])c1)c1ccccc1F [Ro 41-0960]
[10]
  pIC50: 7.52

## CCCOc1ccccc1-c1nc2nn[nH]c2c(=O)[nH]1 [zaprinast]
[11]
  nH: 1.0

## CC(Cc1ccc(O)c(O)c1)C(C)Cc1ccc(O)c(O)c1 (stereo not drawn) [NDGA]
[12]
  nH: 1.6
[13]
  nH: 1.2

## KKALRRQEAVDAL [AIP]
[14]
  IC50: 260 nM

## C[C@@H]1O[C@@H](O[C@H]2C[C@@H](O)[C@]3(CO)[C@H]4[C@H](O)C[C@]5(C)[C@@H](C6=CC(=O)OC6)CC[C@]5(O)[C@@H]4CC[C@]3(O)C2)[C@H](O)[C@H](O)[C@H]1O [ouabain]
[15]
  pIC50: 6.00

## Oc1ncnc2[nH]ncc12 [allopurinol]
[16]
  nH: 1.3
